Results from US20070128217A1 (priority 2003, published 2007).

Legend:
[1] = test system: antibodies in sera from SARS patients (sera 1a, 1b, 2, 6, 37, 62, London, SARS-yellow, SARS-green); type: binding, human; set-up: Binding of serum 6 to linear peptides of protein X1 of SARS-CoV Urbani / Binding of serum 37 to linear peptides of protein X1 of SARS-CoV Urbani / Binding of serum 6 to looped/cyclic peptide (PEPSCAN-ELISA) / Binding of serum 37 to looped/cyclic peptide (PEPSCAN-ELISA) / Binding of serum 37 to looped/cyclic peptides of protein X1 of SARS-CoV Urbani / Binding of serum 6 to linear peptides of protein X2 / Binding of serum 37 to linear peptides of protein X2 / Binding of serum 37 to looped/cyclic peptides of protein X2 of SARS-CoV Urbani / Binding of serum 6 to linear peptides of protein M of SARS-CoV Urbani / Binding of serum 37 to linear peptides of protein M of SARS-CoV Urbani / Binding of serum 6 to looped/cyclic peptides of protein M of SARS-CoV Urbani / Binding of serum 37 to looped/cyclic peptides of protein M of SARS-CoV Urbani / Binding of serum 6 to linear peptides of protein X3 of SARS-CoV Urbani / Binding of serum 37 to linear peptides of protein X3 of SARS-CoV Urbani / Binding of serum 37 to looped/cyclic peptides of protein X3 of SARS-CoV Urbani / Binding of serum 6 to linear peptides of protein X4 of SARS-CoV Urbani / Binding of serum 37 to linear peptides of protein X4 of SARS-CoV Urbani / Binding of serum 37 to looped/cyclic peptides of protein X4 of SARS-CoV Urbani / Binding of serum 6 to linear peptides of protein X5 of SARS-CoV Urbani / Binding of serum 37 to linear peptides of protein X5 of SARS-CoV Urbani / Binding of serum 37 to looped/cyclic peptides of protein X5 of SARS-CoV Urbani / Binding of serum 6 to linear peptides of protein N of SARS-CoV Urbani / Binding of serum 37 to linear peptides of protein N of SARS-CoV Urbani / Binding of serum 6 to linear peptide (PEPSCAN-ELISA) / Binding of serum 1a to looped/cyclic peptides of protein N of SARS-CoV Urbani / Binding of serum 1b to looped/cyclic peptides of protein N of SARS-CoV Urbani / Binding of serum 2 to looped/cyclic peptides of protein N of SARS-CoV Urbani / Binding of serum 6 to looped/cyclic peptides of protein N of SARS-CoV Urbani / Binding of serum 37 to looped/cyclic peptides of protein N of SARS-CoV Urbani / Binding of serum 62 to looped/cyclic peptides of protein N of SARS-CoV Urbani / Binding of serum London to looped/cyclic peptides of protein N of SARS-CoV Urbani / Binding of serum SARS-green to looped/cyclic peptides of protein N of SARS-CoV Urbani: unit not given here
[2] = test system: control sera (pooled serum of ten healthy LUMC hospital workers; commercial negative donor pooled serum from the Dutch bloodbank); type: binding, human; set-up: Binding of Control serum LUMC to linear peptides / Binding of Control serum Blood-bank to linear peptides / Binding of Control serum LUMC to looped peptides / Binding of Control Serum Blood-Bank to Looped peptides / Binding of Control serum LUMC to linear peptides of the protein M of SARS-CoV Urbani / Binding of Control serum Blood-bank to linear peptides of the protein M of SARS-CoV Urbani / Binding of Control serum LUMC to looped peptides of the protein M of SARS-CoV Urbani / Binding of Control Serum Blood-Bank to Looped peptides of the protein M of SARS-CoV Urbani: unit not given here
[3] = test system: rabbit serum obtained by immunizing a rabbit with the SARS-CoV strain Frankfurt 1; type: binding; set-up: Binding of a rabbit serum to linear peptides / Binding of a rabbit serum to looped peptides / Rabbit serum linear peptides / Rabbit serum looped peptides / Binding of a rabbit serum to linear peptides of protein N of SARS-CoV Urbani (Rabbit serum linear peptides) / Binding of a rabbit serum to looped/cyclic peptides of protein N of SARS-CoV Urbani (Rabbit serum looped peptides): unit not given here

GWLVIGVAFLAVFQS
Binding of serum 1a to linear peptides of protein X1 of SARS-CoV Urbani [1]: 0.7
Binding of serum 1a to looped/cyclic peptide (PEPSCAN-ELISA) [1]: 0.7
Binding of serum 1b to linear peptides of protein X1 of SARS-CoV Urbani [1]: 0.6
Binding of serum 1b to looped/cyclic peptide (PEPSCAN-ELISA) [1]: 0.5
Binding of serum 2 to linear peptides of protein X1 of SARS-CoV Urbani [1]: 0.5
Binding of serum 2 to looped/cyclic peptide (PEPSCAN-ELISA) [1]: 0.7
Binding of serum 6 to linear peptides of protein X1 of SARS-CoV Urbani [1]: 0.5
Binding of serum 6 to looped/cyclic peptide (PEPSCAN-ELISA) [1]: 0.4
Binding of serum 37 to linear peptides of protein X1 of SARS-CoV Urbani [1]: 0.6
Binding of serum 37 to looped/cyclic peptide (PEPSCAN-ELISA) [1]: 0.6
Binding of serum 62 to linear peptides of protein X1 of SARS-CoV Urbani [1]: 0.6
Binding of serum 62 to looped/cyclic peptide (PEPSCAN-ELISA) [1]: 0.8
Binding of serum London to linear peptides of protein X1 of SARS-CoV Urbani [1]: 0.3
Binding of serum London to looped/cyclic peptide (PEPSCAN-ELISA) [1]: 0.3
Binding of serum SARS-green to linear peptides of protein X1 of SARS-CoV Urbani [1]: 0.2
Binding of serum SARS-green to looped/cyclic peptide (PEPSCAN-ELISA) [1]: 0.4
Binding of serum SARS-yellow to linear peptides of protein X1 of SARS-CoV Urbani [1]: 0.5
Binding of serum SARS-yellow to looped/cyclic peptide (PEPSCAN-ELISA) [1]: 0.6
Binding of Control Serum Blood-Bank to Looped peptides [2]: 0.8
Binding of Control serum Blood-bank to linear peptides [2]: 0.5
Binding of Control serum LUMC to linear peptides [2]: 0.6
Binding of Control serum LUMC to looped peptides [2]: 0.7
Binding of a rabbit serum to linear peptides [3]: 0.8
Binding of a rabbit serum to looped peptides [3]: 0.6

GYFTEVYYQLESTQI
Binding of serum 1a to linear peptides of protein X1 of SARS-CoV Urbani [1]: 0.7
Binding of serum 1a to looped/cyclic peptides of protein X1 of SARS-CoV Urbani [1]: 0.6
Binding of serum 1b to linear peptides of protein X1 of SARS-CoV Urbani [1]: 0.5
Binding of serum 1b to looped/cyclic peptides of protein X1 of SARS-CoV Urbani [1]: 0.5
Binding of serum 2 to linear peptides of protein X1 of SARS-CoV Urbani [1]: 0.5
Binding of serum 2 to looped/cyclic peptides of protein X1 of SARS-CoV Urbani [1]: 0.5
Binding of serum 6 to linear peptides of protein X1 of SARS-CoV Urbani [1]: 0.4
Binding of serum 6 to looped/cyclic peptides of protein X1 of SARS-CoV Urbani [1]: 0.4
Binding of serum 37 to linear peptides of protein X1 of SARS-CoV Urbani [1]: 0.6
Binding of serum 37 to looped/cyclic peptides of protein X1 of SARS-CoV Urbani [1]: 0.6
Binding of serum 62 to linear peptides of protein X1 of SARS-CoV Urbani [1]: 0.5
Binding of serum 62 to looped/cyclic peptides of protein X1 of SARS-CoV Urbani [1]: 0.6
Binding of serum London to linear peptides of protein X1 of SARS-CoV Urbani [1]: 0.3
Binding of serum London to looped/cyclic peptides of protein X1 of SARS-CoV Urbani [1]: 0.2
Binding of serum SARS-green to linear peptides of protein X1 of SARS-CoV Urbani [1]: 0.3
Binding of serum SARS-green to looped/cyclic peptides of protein X1 of SARS-CoV Urbani [1]: 0.4
Binding of serum SARS-yellow to linear peptides of protein X1 of SARS-CoV Urbani [1]: 0.4
Binding of serum SARS-yellow to looped/cyclic peptides of protein X1 of SARS-CoV Urbani [1]: 0.4
Binding of Control Serum Blood-Bank to Looped peptides [2]: 0.6
Binding of Control serum Blood-bank to linear peptides [2]: 0.4
Binding of Control serum LUMC to linear peptides [2]: 0.4
Binding of Control serum LUMC to looped peptides [2]: 0.7
Binding of a rabbit serum to linear peptides [3]: 0.1
Binding of a rabbit serum to looped peptides [3]: 0.5

HATATIPLQASLPFG
Binding of serum 1a to linear peptides of protein X1 of SARS-CoV Urbani [1]: 0.9
Binding of serum 1a to looped/cyclic peptide (PEPSCAN-ELISA) [1]: 0.8
Binding of serum 1b to linear peptides of protein X1 of SARS-CoV Urbani [1]: 0.8
Binding of serum 1b to looped/cyclic peptide (PEPSCAN-ELISA) [1]: 0.6
Binding of serum 2 to linear peptides of protein X1 of SARS-CoV Urbani [1]: 0.6
Binding of serum 2 to looped/cyclic peptide (PEPSCAN-ELISA) [1]: 0.5
Binding of serum 6 to linear peptides of protein X1 of SARS-CoV Urbani [1]: 0.6
Binding of serum 6 to looped/cyclic peptide (PEPSCAN-ELISA) [1]: 0.5
Binding of serum 37 to linear peptides of protein X1 of SARS-CoV Urbani [1]: 0.8
Binding of serum 37 to looped/cyclic peptide (PEPSCAN-ELISA) [1]: 0.6
Binding of serum 62 to linear peptides of protein X1 of SARS-CoV Urbani [1]: 0.7
Binding of serum 62 to looped/cyclic peptide (PEPSCAN-ELISA) [1]: 0.6
Binding of serum London to linear peptides of protein X1 of SARS-CoV Urbani [1]: 0.3
Binding of serum London to looped/cyclic peptide (PEPSCAN-ELISA) [1]: 0.2
Binding of serum SARS-green to linear peptides of protein X1 of SARS-CoV Urbani [1]: 0.2
Binding of serum SARS-green to looped/cyclic peptide (PEPSCAN-ELISA) [1]: 0.4
Binding of serum SARS-yellow to linear peptides of protein X1 of SARS-CoV Urbani [1]: 0.4
Binding of serum SARS-yellow to looped/cyclic peptide (PEPSCAN-ELISA) [1]: 0.4
Binding of Control Serum Blood-Bank to Looped peptides [2]: 0.7
Binding of Control serum Blood-bank to linear peptides [2]: 0.8
Binding of Control serum LUMC to linear peptides [2]: 0.6
Binding of Control serum LUMC to looped peptides [2]: 0.7
Binding of a rabbit serum to linear peptides [3]: 0.1
Binding of a rabbit serum to looped peptides [3]: 0.5

HFAFACADGTRHTYQ
Binding of serum 1a to linear peptides of protein X4 of SARS-CoV Urbani [1]: 0.7
Binding of serum 1a to looped/cyclic peptides of protein X4 of SARS-CoV Urbani [1]: 0.6
Binding of serum 1b to linear peptides of protein X4 of SARS-CoV Urbani [1]: 0.5
Binding of serum 1b to looped/cyclic peptides of protein X4 of SARS-CoV Urbani [1]: 0.5
Binding of serum 2 to linear peptides of protein X4 of SARS-CoV Urbani [1]: 0.4
Binding of serum 2 to looped/cyclic peptides of protein X4 of SARS-CoV Urbani [1]: 0.6
Binding of serum 6 to linear peptides of protein X4 of SARS-CoV Urbani [1]: 0.6
Binding of serum 6 to looped/cyclic peptides of protein X4 of SARS-CoV Urbani [1]: 0.6
Binding of serum 37 to linear peptides of protein X4 of SARS-CoV Urbani [1]: 0.6
Binding of serum 37 to looped/cyclic peptides of protein X4 of SARS-CoV Urbani [1]: 0.6
Binding of serum 62 to linear peptides of protein X4 of SARS-CoV Urbani [1]: 0.6
Binding of serum 62 to looped/cyclic peptides of protein X4 of SARS-CoV Urbani [1]: 0.5
Binding of serum London to linear peptides of protein X4 of SARS-CoV Urbani [1]: 0.6
Binding of serum London to looped/cyclic peptides of protein X4 of SARS-CoV Urbani [1]: 0.2
Binding of serum SARS-green to linear peptides of protein X4 of SARS-CoV Urbani [1]: 0.6
Binding of serum SARS-green to looped/cyclic peptides of protein X4 of SARS-CoV Urbani [1]: 0.2
Binding of serum SARS-yellow to linear peptides of protein X4 of SARS-CoV Urbani [1]: 0.1
Binding of serum SARS-yellow to looped/cyclic peptides of protein X4 of SARS-CoV Urbani [1]: 0.4
Binding of Control Serum Blood-Bank to Looped peptides [2]: 0.8
Binding of Control serum Blood-bank to linear peptides [2]: 0.6
Binding of Control serum LUMC to linear peptides [2]: 0.7
Binding of Control serum LUMC to looped peptides [2]: 0.7
Rabbit serum linear peptides [3]: 0.4
Rabbit serum looped peptides [3]: 0.1

HITVSQIQLSLLKVT
Binding of serum 1a to linear peptides of protein X2 [1]: 0.6
Binding of serum 1a to looped/cyclic peptides of protein X2 of SARS-CoV Urbani [1]: 0.5
Binding of serum 1b to linear peptides of protein X2 [1]: 0.5
Binding of serum 1b to looped/cyclic peptides of protein X2 of SARS-CoV Urbani [1]: 0.5
Binding of serum 2 to linear peptides of protein X2 [1]: 0.5
Binding of serum 2 to looped/cyclic peptides of protein X2 of SARS-CoV Urbani [1]: 0.5
Binding of serum 6 to linear peptides of protein X2 [1]: 0.5
Binding of serum 6 to looped/cyclic peptides of protein X2 of SARS-CoV Urbani [1]: 0.4
Binding of serum 37 to linear peptides of protein X2 [1]: 0.7
Binding of serum 37 to looped/cyclic peptides of protein X2 of SARS-CoV Urbani [1]: 0.5
Binding of serum 62 to linear peptides of protein X2 [1]: 0.5
Binding of serum 62 to looped/cyclic peptides of protein X2 of SARS-CoV Urbani [1]: 0.6
Binding of serum London to linear peptides of protein X2 [1]: 0.4
Binding of serum London to looped/cyclic peptides of protein X2 of SARS-CoV Urbani [1]: 0.8
Binding of serum SARS-green to linear peptides of protein X2 [1]: 0.2
Binding of serum SARS-green to looped/cyclic peptides of protein X2 of SARS-CoV Urbani [1]: 0.4
Binding of serum SARS-yellow to linear peptides of protein X2 [1]: 0.8
Binding of serum SARS-yellow to looped/cyclic peptides of protein X2 of SARS-CoV Urbani [1]: 0.6
Binding of Control Serum Blood-Bank to Looped peptides [2]: 0.6
Binding of Control serum Blood-bank to linear peptides [2]: 0.6
Binding of Control serum LUMC to linear peptides [2]: 0.8
Binding of Control serum LUMC to looped peptides [2]: 0.5
Binding of a rabbit serum to linear peptides [3]: 0.7
Binding of a rabbit serum to looped peptides [3]: 0.4
